Data as given in paper PMC11124870, “Effect of Antioxidants in Medicinal Products on Intestinal Drug Transporters” (Pharmaceutics, 2024).
“And” between values parts separate entries of the source, which are not always exact repeats. Equal values may be shown once.

Columns and labels:
[1] = target: T1, P-gp (Homo sapiens, UniProt P08183); assay: Vesicular transport assay, 3H-NMQ uptake in P-gp membrane vesicles; type: biochemical; conditions: for % Uptake of 3H-NMQ P-gp: antioxidant 200 µM, uptake with DMSO set as 100%, mean ± SD, three replicates, membrane vesicles; for inhibition at 20 min, 200 µM: human, Sf9 membrane vesicles overexpressing human P-gp, pH 7, probe 3H-NMQ, 3H-NMQ
T1 construct: purchased ThermoFisher Scientific GM0015; host or cells: Sf9 membrane vesicles
Description: (§1) The vesicular transport assay was performed using Spodoptera frugiperda 9 (Sf9) membrane vesicles overexpressing human P-gp or BCRP, as reported previously with minor modifications. In brief, Isoplate 96-well flat-bottom white plates were preincubated with HBSS containing 0.5 mg/mL BSA on an orbital shaker in a 37 °C incubator at 90 rpm for 60 min followed by washing with HBSS. The assay mixture (75 µL/well) contained a probe substrate and either vehicle control, a known inhibitor of P-gp or BCRP, or an antioxidant, in vesicle uptake buffer (50 mM MOPS-Tris, pH 7.0 + 70 mM KCl + 7.5 mM MgCl2) prewarmed to 37 °C. After addition of the assay mixture, 5 μL/well (5 μg/μL stock concentration of the vesicles) of vesicles overexpressing human P-gp or BCRP was added. Uptake assays were initiated by adding 20 μL of either 25 mM adenosine triphosphate (ATP) or 25 mM adenosine monophosphate (AMP) to a final concentration of 5 mM. Plates were incubated at 37 °C for 20 min with orbital shaking (90 rpm). After 20 min, the uptake was quenched by adding 150 μL of ice-cold wash buffer (40 mM MOPS-Tris, pH 7.0 + 70 mM KCl) to each well, and the mixture was transferred to a 96-well filtration plate. Vacuum was applied, and the vesicles were washed three times with wash buffer. Vesicles were then lysed with 100 µL of MicroScint-20.

[2] = Estimation of intestinal luminal concentration (Igut), dose/250 mL; conditions: estimated from maximum oral amount (AP 10 mg, BHA 8 mg) in 250 mL intestinal fluid
Description: Igut is intestinal luminal concentration estimated as dose/250 mL. The Igut concentration was estimated using the following equation: Igut=A÷MW×V×10^6 where Igut is the estimated intestinal luminal concentration (µM), A is the amount of antioxidant in an oral dosage (mg), MW is the molecular weight, and V is the volume of intestinal fluid, i.e., 250 mL.

[3] = Table S1; source not stated; cited from earlier work
[4] = target: T2, OATP2B1 (Homo sapiens, UniProt O94956); assay: 3H-valsartan uptake inhibition in HEK-293-OATP2B1 cells; conditions: IC50 OATP2B1, valsartan uptake, substrate 3H-valsartan, three independent experiments
T2 sequence (O94956 1-709): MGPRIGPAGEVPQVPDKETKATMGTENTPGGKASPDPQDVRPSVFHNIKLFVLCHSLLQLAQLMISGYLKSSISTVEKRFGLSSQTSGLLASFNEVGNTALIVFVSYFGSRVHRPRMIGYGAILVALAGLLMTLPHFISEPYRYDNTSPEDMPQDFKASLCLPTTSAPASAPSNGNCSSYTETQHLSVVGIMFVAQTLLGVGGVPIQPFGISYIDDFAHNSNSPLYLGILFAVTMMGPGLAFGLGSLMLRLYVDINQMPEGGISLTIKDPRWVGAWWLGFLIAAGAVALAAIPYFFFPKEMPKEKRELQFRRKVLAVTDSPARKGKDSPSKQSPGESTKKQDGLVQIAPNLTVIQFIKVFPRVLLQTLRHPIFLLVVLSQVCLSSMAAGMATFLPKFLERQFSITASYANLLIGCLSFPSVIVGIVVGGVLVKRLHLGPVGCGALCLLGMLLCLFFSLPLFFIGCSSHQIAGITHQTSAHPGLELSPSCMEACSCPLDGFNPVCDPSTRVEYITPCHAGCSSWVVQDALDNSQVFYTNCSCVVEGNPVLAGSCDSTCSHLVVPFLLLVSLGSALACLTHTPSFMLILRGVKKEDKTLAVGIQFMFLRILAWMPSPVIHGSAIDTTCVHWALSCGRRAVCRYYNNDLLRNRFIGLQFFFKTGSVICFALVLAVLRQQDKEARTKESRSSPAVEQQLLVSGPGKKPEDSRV
Description: (§2) The uptake transporter assay was performed as reported previously with minor modifications [15]. A day before the uptake assay, Isoplate 96-well plates were coated with poly-D-lysine in PBS with calcium and magnesium and washed with PBS. […] An assay mixture of ^3H-estrone sulfate, a known inhibitor of OATP2B1, or an antioxidant was prepared and incubated in a 37 °C incubator for 10 min. The cells were washed with ice-cold HBSS three times and incubated with MicroScint fluid on a shaker for 1 h for cell lysis. Radioactivity was measured by liquid scintillation counting with a MicroBeta^2® microplate counter. […] On the day of experiment, cells were washed twice with 0.4 mL of HBSS per well and then pre-incubated for 10–20 min in 0.4 mL of HBSS. […] Uptake of ^3H-valsartan was stopped after 15 min by washing three times with ice-cold HBSS. Cells were lysed in 750 µL of lysis buffer (0.1 N NaOH and 0.1% SDS in double-distilled water) per well while shaking for 60 min. A total of 690 µL of the lysate from each well was then added to 2.5 mL of EcoLite scintillation fluid. The radioactivity was determined on a LS6500 Scintillation Counter (Beckman Coulter). Protein concentration was measured with a Pierce™ BCA protein assay kit. The radioactivity in each well was corrected for protein concentration. All values were determined in triplicate, and the final values are expressed as % uptake relative to negative control (1% DMSO).
(§3) Antioxidants were screened at a concentration of 200 μM.

[5] = target: T2, OATP2B1; assay: Uptake transporter assay, 3H-estrone sulfate uptake in HEK-293-OATP2B1 cells; conditions: for % Uptake of 3H-ES OATP2B1: antioxidant 200 µM, uptake with DMSO set as 100%, mean ± SD, three replicates, HEK-293-OATP2B1 cells
Description: as §2, §3

[6] = target: T3, BCRP (Homo sapiens, UniProt Q9UNQ0); assay: Vesicular transport assay, 3H-CCK8 uptake in BCRP membrane vesicles; type: biochemical; set-up: purchased ThermoFisher Scientific GM0008; host or cells: Sf9 membrane vesicles; conditions: for % Uptake of 3H-CCK8 BCRP: antioxidant 200 µM, uptake with DMSO set as 100%, mean ± SD, three replicates, membrane vesicles; for inhibition at 20 min, 200 µM: human, Sf9 membrane vesicles overexpressing human BCRP, pH 7, probe 3H-CCK8, 3H-CCK8
T3 sequence (Q9UNQ0 1-655): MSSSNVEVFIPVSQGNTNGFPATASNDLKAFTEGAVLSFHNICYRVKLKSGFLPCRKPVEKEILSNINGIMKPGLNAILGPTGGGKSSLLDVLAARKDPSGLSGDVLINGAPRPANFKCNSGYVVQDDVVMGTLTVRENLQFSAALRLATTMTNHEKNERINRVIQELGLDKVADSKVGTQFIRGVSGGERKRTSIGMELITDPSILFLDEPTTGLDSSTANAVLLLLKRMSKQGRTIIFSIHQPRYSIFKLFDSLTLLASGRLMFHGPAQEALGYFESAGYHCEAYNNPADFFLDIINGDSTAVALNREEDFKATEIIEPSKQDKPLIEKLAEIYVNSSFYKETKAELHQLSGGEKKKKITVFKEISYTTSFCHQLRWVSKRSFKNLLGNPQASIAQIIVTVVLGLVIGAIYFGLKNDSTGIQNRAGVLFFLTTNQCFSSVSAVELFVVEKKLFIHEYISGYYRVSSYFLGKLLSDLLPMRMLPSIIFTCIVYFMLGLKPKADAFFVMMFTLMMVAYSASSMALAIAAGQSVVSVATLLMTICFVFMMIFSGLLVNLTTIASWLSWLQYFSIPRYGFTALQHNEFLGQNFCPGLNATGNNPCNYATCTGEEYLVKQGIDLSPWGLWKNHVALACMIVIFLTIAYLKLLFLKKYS
Description: as §1

[7] = tested on: P-gp; set-up: method as in PMID 19944162; conditions: cited from earlier work
[8] = tested on: OATP2B1, P-gp, and BCRP; conditions: cited from earlier work

T1 sequence (P08183 whole entry): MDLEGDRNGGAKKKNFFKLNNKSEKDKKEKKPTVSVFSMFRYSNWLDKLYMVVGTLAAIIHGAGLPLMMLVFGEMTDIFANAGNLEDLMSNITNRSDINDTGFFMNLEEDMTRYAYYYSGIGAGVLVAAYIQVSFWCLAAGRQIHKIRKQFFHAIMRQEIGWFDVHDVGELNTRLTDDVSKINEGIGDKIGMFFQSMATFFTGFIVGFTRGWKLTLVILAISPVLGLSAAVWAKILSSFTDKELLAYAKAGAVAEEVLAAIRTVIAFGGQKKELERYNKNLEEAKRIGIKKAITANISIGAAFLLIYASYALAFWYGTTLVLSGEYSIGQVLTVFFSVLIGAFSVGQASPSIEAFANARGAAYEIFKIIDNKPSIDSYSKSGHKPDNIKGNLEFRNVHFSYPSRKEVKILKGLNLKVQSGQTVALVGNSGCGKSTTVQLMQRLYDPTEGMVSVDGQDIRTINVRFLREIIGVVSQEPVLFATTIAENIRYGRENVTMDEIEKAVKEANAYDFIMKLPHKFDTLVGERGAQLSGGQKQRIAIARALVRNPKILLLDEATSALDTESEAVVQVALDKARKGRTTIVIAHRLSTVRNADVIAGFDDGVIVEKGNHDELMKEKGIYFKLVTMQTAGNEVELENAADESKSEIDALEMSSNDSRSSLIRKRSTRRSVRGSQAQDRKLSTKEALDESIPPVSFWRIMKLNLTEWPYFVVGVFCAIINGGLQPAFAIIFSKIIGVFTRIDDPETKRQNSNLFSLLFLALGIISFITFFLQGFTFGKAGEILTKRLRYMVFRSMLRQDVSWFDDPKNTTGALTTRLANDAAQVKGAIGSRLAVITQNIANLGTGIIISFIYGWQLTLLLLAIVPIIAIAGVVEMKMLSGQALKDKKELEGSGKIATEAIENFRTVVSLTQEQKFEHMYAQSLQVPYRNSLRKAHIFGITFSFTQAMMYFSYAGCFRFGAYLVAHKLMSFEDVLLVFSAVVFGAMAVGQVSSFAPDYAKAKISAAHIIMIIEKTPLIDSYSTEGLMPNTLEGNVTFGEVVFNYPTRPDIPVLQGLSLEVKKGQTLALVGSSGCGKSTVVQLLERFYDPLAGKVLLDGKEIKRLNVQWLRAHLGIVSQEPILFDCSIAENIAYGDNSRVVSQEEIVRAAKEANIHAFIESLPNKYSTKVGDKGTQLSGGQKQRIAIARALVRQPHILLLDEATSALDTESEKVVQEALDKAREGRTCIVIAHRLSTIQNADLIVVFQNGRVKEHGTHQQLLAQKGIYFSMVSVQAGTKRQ

Row | Molecule | % Uptake of 3H-NMQ P-gp [1] | inhibition at 20 min, 200 µM [1] | Max Intestinal Conc (µM) in 250 mL Fluid [2] | LogP [3] | IC50 [4] | IC50 ([5]; IC50 OATP2B1, substrate 3H-estrone sulfate, mean ± SD of three independent experiments) | IC50 ([5]; IC50 with preincubation, OATP2B1 expressing cells pre-incubated 30 minutes, mean ± SD of three independent experiments) | Effect of 30 min pre-incubation on inhibition potency ([5]; OATP2B1-expressing cells pre-incubated for 30 min) | % Uptake of 3H-ES OATP2B1 [5] | IC50 at 10 min ([5]; human, HEK-293 cells that express OATP2B1, probe 3H-estrone sulfate, IC50 without preincubation, OATP2B1 expressing cells, mean ± SD of three independent experiments) | inhibition at 10 min, 200 µM ([5]; human, HEK-293 cells that express OATP2B1, probe 3H-estrone sulfate, Inhibition of OATP2B1, 200 µM, 3H-estrone sulfate) | % Uptake of 3H-CCK8 BCRP [6] | inhibition at 20 min, 200 µM [6] | P-gp inhibition in ATPase assays [7] | inhibition at 10 min, 200 µM ([5]; human, HEK-293 cells that express OATP2B1, probe 3H-estrone sulfate) | Inhibition of intestinal transporters, previous assessment [8]
1 | CCCCCCCCCCCCCCCC(=O)OC[C@H](O)[C@H]1OC(=O)C(O)=C1O [Ascorbyl palmitate (AP), Ascorbyl palmitate] | 86.9 ± 12.4% | < 50% | 96.5 µM | 6 | 26 µM and 25.5 µM | 23 ± 10 µM | 95 ± 11.7 µM | did not further affect their inhibition potency | 28.3 ± 11.2% | 159 ± 65.9 µM | > 50% | 50.9 ± 9.9% | < 50% |  |  | 
2 | CC(C)c1cc2c(c(O)c1O)[C@@]1(C(=O)O)CCCC(C)(C)[C@@H]1CC2 [Carnosic acid] | 0.0 ± 10.1% | ≥ 50% |  | 4.9 |  |  |  |  | 18.8 ± 5.6% |  |  | 4.5 ± 4.8% | ≥ 50% | identified as a P-gp inhibitor | ≥ 50% | 
3 | O=S(O)S(=O)(=O)O [Sodium metabisulfite] | 78.8 ± 17.5% |  |  | -3.7 |  |  |  |  | 118.9 ± 31.7% |  |  | 94.5 ± 8.2% |  |  |  | 
4 | O=S([O-])[O-].[Na+].[Na+] [Sodium sulfite] | 77.7 ± 33.7% |  |  | -4 |  |  |  |  | 92.9 ± 4.5% |  |  | 99.7 ± 5.5% |  |  |  | 
5 | O.O.O.O.O.O=S([O-])([O-])=S.[Na+].[Na+] [Sodium thiosulfate, pentahydrate] | 77.4 ± 20% |  |  | 0.048 |  |  |  |  | 104.4 ± 2.4% |  |  | 114.2 ± 22.8% |  |  |  | found not to inhibit these transporters
6 | Vitamin E | 67.9 ± 24% |  |  |  |  |  |  |  | 83.5 ± 20.9% |  |  | 81.0 ± 12.6% |  |  |  | found not to inhibit these transporters
